What was measured:
[1] = Solubility determination; conditions: for Sol6: pH 6; for Sol7: pH 7
Summary of the method: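 Solubility is derived from the ratio of reversed-phase peak areas, filtered sample over a control dissolved at 1 mg/ml in 50% acetonitrile. Peptides are agitated for 2 hours at room temperature in 0.1 M sodium diphosphate at pH 6.4 or 7.0, aiming at 10 mg/ml.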

[2] = target: T1, human NPY5 receptor (hY5R) (Homo sapiens, UniProt Q15761); assay: HTRF cAMP Gi assay, hY5R
T1 sequence (Q15761 1-445): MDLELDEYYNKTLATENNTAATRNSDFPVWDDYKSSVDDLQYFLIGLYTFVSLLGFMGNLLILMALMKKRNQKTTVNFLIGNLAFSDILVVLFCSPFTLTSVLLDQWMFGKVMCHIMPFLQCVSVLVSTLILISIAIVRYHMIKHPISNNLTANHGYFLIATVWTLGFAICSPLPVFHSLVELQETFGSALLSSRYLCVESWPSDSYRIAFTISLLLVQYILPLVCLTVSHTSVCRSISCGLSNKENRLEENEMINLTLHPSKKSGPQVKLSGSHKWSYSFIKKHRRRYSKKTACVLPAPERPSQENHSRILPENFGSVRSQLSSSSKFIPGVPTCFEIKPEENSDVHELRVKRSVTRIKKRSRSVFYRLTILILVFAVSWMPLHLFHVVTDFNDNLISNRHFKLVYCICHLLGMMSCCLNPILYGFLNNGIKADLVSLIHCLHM
Procedure: Briefly, the production of intracellular cAMP will generate a competition between unlabeled cAMP and exogenously added d2-cAMP for anti-cAMP antibodies conjugated to cryptate. CHO-K1 cells stably expressing the human NPY1, NPY2, NPY4 and NPY5 receptors were used with the cells brought to life from a frozen stock immediately before assay performance. 2000 cells per well were applied for all four NPY receptor subtype assays. A 384-well format was used applying a total volume of 20 μl using 5 μl cells, 2.5 μl peptide agonist, 2.5 μl forskolin and 5 μl of each of the fluorophores. […] Concentration-response evaluation of compounds was performed with 11 concentrations of agonist peptides (covering 3 decades). EC50 values were calculated by nonlinear regression using sigmoid concentration-response with variable slope.

[3] = target: T2, Human Neuropeptide Y2 Receptor (Homo sapiens, UniProt P49146); assay: Radioligand binding competition assay (RLB); conditions: Table 3, 125I-PYY(1-36) competition; read-out: Ki
T2 construct: purchased CHEMICON HTS066M
T2 sequence (P49146 1-381): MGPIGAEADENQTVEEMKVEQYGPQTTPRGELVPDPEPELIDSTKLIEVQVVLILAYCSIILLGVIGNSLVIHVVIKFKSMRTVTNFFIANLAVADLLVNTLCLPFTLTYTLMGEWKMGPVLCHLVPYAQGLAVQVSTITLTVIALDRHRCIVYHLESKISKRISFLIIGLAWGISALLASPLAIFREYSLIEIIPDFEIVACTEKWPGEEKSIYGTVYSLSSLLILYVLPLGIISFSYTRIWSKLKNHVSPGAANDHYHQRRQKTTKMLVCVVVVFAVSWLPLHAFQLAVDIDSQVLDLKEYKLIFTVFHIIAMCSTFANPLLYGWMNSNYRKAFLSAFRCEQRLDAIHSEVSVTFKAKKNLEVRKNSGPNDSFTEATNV
Summary of the method: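 Displacement of radioligand is measured after 2 h at room temperature with receptor membranes in Mg2+/Ca2+ HEPES buffer, pH 7.4. Filter-bound radioactivity is counted and IC50 obtained from curve fitting.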

Sol6 [1] | Sol7 [1] | EC50 [2] | Ki [3] | SMILES
8.4 mg/mL | 8.7 mg/mL | > 5 µM | 18.8 nM | CC[C@H](C)[C@H](NC(=O)[C@H](CCC(=O)O)NC(=O)[C@H](CCC(=O)O)NC(=O)[C@@H]1CCCN1C(=O)[C@H](CO)NC(=O)[C@H](C)NC(=O)[C@H](CC(=O)O)NC(=O)[C@H](CCC(=O)O)NC(=O)[C@H](CCC(=O)O)NC(=O)[C@H](C)NC(=O)[C@H](CCCCNC(=O)CCCCCNC(=O)CC[C@H](NC(=O)CCCCCCCCCCCCCCCCC(=O)O)C(=O)O)NC(=O)[C@H](CCC(=O)O)NC(=O)[C@@H]1CCCN1C(=O)[C@H](C)NC(=O)CC(C)C)C(=O)N[C@@H](CCC(N)=O)C(=O)N[C@@H](CCCNC(=N)N)C(=O)N[C@@H](Cc1ccc(O)cc1)C(=O)N[C@@H](Cc1ccc(O)cc1)C(=O)N[C@H](C(=O)N[C@@H](CO)C(=O)N[C@@H](CC(C)C)C(=O)N[C@@H](CCCNC(=N)N)C(=O)N[C@@H](Cc1c[nH]cn1)C(=O)N[C@@H](Cc1ccc(O)cc1)C(=O)N[C@@H](Cc1ccc(O)cc1)C(=O)N[C@@H](CC(N)=O)C(=O)N[C@@H](Cc1c[nH]c2ccccc12)C(=O)N[C@@H](CC(C)C)C(=O)N[C@H](C(=O)N[C@@H](CCCNC(=N)N)C(=O)N[C@@H](CCC(N)=O)C(=O)N[C@@H](CCCNC(=N)N)C(=O)N[C@@H](Cc1ccc(O)cc1)C(N)=O)[C@@H](C)O)C(C)C [Compound 183, N{alpha-4}-(3-methylbutanoyl)-N{epsilon-7}-(6-[(4S)-4-carboxy-4-(17-carboxyheptadecanamido)butanamido]hexanoyl)-[4A,7K,8A,9E,17I,18Q,22V,28Y,30W,31L]-hPYY(4-36)]
9.5 mg/mL | 9.5 mg/mL | > 5 µM | 2.39 nM | CC[C@H](C)[C@H](NC(=O)[C@H](CCC(=O)O)NC(=O)[C@H](CCC(=O)O)NC(=O)[C@@H]1CCCN1C(=O)[C@H](CO)NC(=O)[C@H](C)NC(=O)[C@H](CC(=O)O)NC(=O)[C@H](CCC(=O)O)NC(=O)[C@H](CCC(=O)O)NC(=O)[C@@H]1CCCN1C(=O)[C@H](CCCCNC(=O)CCCCCNC(=O)CC[C@H](NC(=O)CCCCCCCCCCCCCCCCC(=O)O)C(=O)O)NC(=O)[C@H](CCC(=O)O)NC(=O)[C@@H]1CCCN1C(=O)[C@H](C)NC(=O)CC(C)C)C(=O)N[C@@H](CCC(N)=O)C(=O)N[C@@H](CCCNC(=N)N)C(=O)N[C@@H](Cc1ccc(O)cc1)C(=O)N[C@@H](Cc1ccc(O)cc1)C(=O)N[C@H](C(=O)N[C@@H](CCC(=O)O)C(=O)N[C@@H](CC(C)C)C(=O)N[C@@H](CCCNC(=N)N)C(=O)N[C@@H](Cc1c[nH]cn1)C(=O)N[C@@H](Cc1ccc(O)cc1)C(=O)N[C@@H](Cc1ccc(O)cc1)C(=O)N[C@@H](CC(N)=O)C(=O)N[C@@H](Cc1c[nH]c2ccccc12)C(=O)N[C@@H](CC(C)C)C(=O)N[C@H](C(=O)N[C@@H](CCCNC(=N)N)C(=O)N[C@@H](CCC(N)=O)C(=O)N[C@@H](CCCNC(=N)N)C(=O)N[C@@H](Cc1ccc(O)cc1)C(N)=O)[C@@H](C)O)C(C)C [Compound 52, N{alpha-4}-(3-methylbutanoyl)-N{epsilon-7}-(6-[(4S)-4-carboxy-4-(17-carboxyheptadecanamido)butanamido]hexanoyl)-[4A,7K,9E,17I,18Q,22V,23E,28Y,30W,31L]-hPYY(4-36)]

— patent US12391737B2, “Soluble NPY2 receptor agonists” (Boehringer Ingelheim International GmbH, priority 2020, dated 2025)
